Assay results: patent publication US20250025451A1, “TREATMENT OF CANCER WITH KDM4 INHIBITORS” (Celgene Corporation, priority 2021, published 2025)
Converted amounts (≈) assume the structure as drawn. Like-named read-outs stand apart in the source and are kept apart here.

Columns and labels:
[1] = tested on: erythroid hematopoietic progenitor cells derived from human bone marrow; assay: erythroid colony formation of hematopoietic progenitor cells; assay type: cell-based; settings: 336 h, human bone marrow progenitor cells
Description: (§1) Compound 1 was evaluated for its effects on proliferation of erythroid and myeloid hematopoietic progenitor cells derived from human bone marrow at […] Technologies Inc. (Vancouver, BC, Canada).
(§2) Cells were thawed rapidly at 37° C. into DNAse I and then diluted in 10 mL of Iscove's Modified Dulbecco's medium containing 2% fetal bovine serum (IMDM+2% FBS) and washed by centrifugation (1200 rpm for 10 minutes at room temperature). The supernatant was discarded and the cell pellet resuspended in a known volume of IMDM+2% FBS. A nucleated cell count (3% glacial acetic acid) and viability assessment (trypan blue exclusive test) were performed.
(§3) Compound 1 and positive control (panobinostat) were diluted in DMSO and tested at concentrations ranging from 0.002 μM to 5 μM in final media. These dilutions provided the appropriate final test concentrations required for the test and control articles ([…], and 0.002 μM).
(§4) Test and control articles were incubated with human bone marrow hematopoietic progenitor cells. After 14 days, cell colonies were assessed.
(§5) To calculate the concentration of 50% and 90% inhibition of colony growth (IC50 and IC90) for each test article, a dose response curve was generated plotting the log of the test article concentration versus the percentage of control colony growth using GraphPad Prism. […] The IC50 and IC90 values for both test and control articles were derived from an interpolation of the curve fit. In cases where the IC50/90 value reported by GraphPad Prism is a value beyond the range of concentrations that were actually tested, if this value is more than 4 times the highest concentration tested, or where GraphPad Prism cannot calculate an IC50/90 value, notations of >5 μM (for test article compound 1) are used.

[2] = tested on: myeloid hematopoietic progenitor cells derived from human bone marrow; assay: myeloid colony formation of hematopoietic progenitor cells; assay type: cell-based; settings: 336 h, human bone marrow progenitor cells
Description: as §1, §2, §3, §4, §5

IC50 ([1]; 14 days, read-out: IC50, inhibition of erythroid colony formation): < 10 nM | IC50 ([2]; 14 days, read-out: IC50, inhibition of myeloid colony formation): < 10 nM
Compound: Cc1[nH]c2ccccc2c1CCNCc1ccc(/C=C/C(=O)NO)cc1 [Panobinostat, reference compound]
IC90 ([1]; colony growth after 14 days): 7.5 ng/mL (≈ 0.0215 µM) | IC50 ([1]; colony growth after 14 days, read-out: Erythroid IC50): 6.4 ng/mL | IC90 ([2]; colony growth after 14 days): 8.1 ng/mL (≈ 0.0232 µM) | IC50 ([2]; colony growth after 14 days, read-out: Myeloid IC50): 7.4 ng/mL
